Measured values from patent US7632814B2, “HYD1 peptides as anti-cancer agents” (University of South Florida, priority 2006, dated 2009).
Where no end group is shown, it is not given here. [ ]: non-standard residue; d: D form.

How the values were obtained:
H929 cells [1] = assay: Detection of apoptosis, annexin V staining and FACS, suspension culture; assay type: cell-based
Method: FIG. 17 is a graph showing that HYD1 induces apoptosis as a single agent in 8226 and H929 cells cultured in suspension. 8226 and H929 cells were either treated with varying concentrations of HYD1 or vehicle control (equal volume sterile double distilled water) for 24 hours and apoptotic cells were detected by FACS analysis of annexin V positive cells. HYD1 specific apoptosis equals cell death due to peptide minus any apoptosis detected in control cells.
200 μM ZVAD-FMK was added to H929 cells for 30 minutes prior to the addition of either 75 μg/ml HYD1S or 15 μM Melphalan. Apoptosis was measured 24 hours after drug treatment by annexin/PI staining and apoptotic cells were detected by FACS analysis. Three independent experiments were performed and shown is a representative experiment.
Detection of Apoptosis. […] Blood, 1999; 93:1658-1667). The assay was performed in triplicate and 3 independent experiments were performed. Caspase 3 and 8 activity was measured at 6 and 24 hrs post peptide treatment per manufactures' instructions (BD Biosciences, San Jose, Calif.). The caspase assays were performed in triplicate and repeated twice.
Myeloma cells were plated at a density of 400,000 cells per ml in a 24 well plate. Cells were treated with the indicated dose of the peptide for 24 hours. Following 24 hrs of peptide exposure, apoptotic cells were detected using Annexin V staining and FACS analysis. Ten thousand events were analyzed by flow cytometry (Becton Dickinson, San Jose, Calif.). Experiments were performed in triplicate and repeated twice. Shown is a representative figure.

ERK = assay: Activation of ERK signaling; assay type: cell-based
Method: HYD1, when introduced as a soluble ligand, completely blocks random hapotaxis on laminin 322 and enhanced cellular signals are coupled with the loss of cell motility. […] Using this endpoint as an indicator of HYD1 bioactivity, the truncated and alanine-substituted variants of HYD1 were tested for their ability to activate ERK. Activation of ERK at 10 minutes post-treatment was conserved with alanine-substitution only at the N-terminal lysine and C-terminal glycine (FIG. 16A-1). […] Taken together (FIG. 16C-2), the results (FIGS. 16A-1, 16A-2, 16B, 16C-1) indicate that activation of ERK signaling required ikmviswxx (SEQ ID NO:48).

H929 cells [2] = assay: Electron microscopy of double membrane vesicles; assay type: cell-based; conditions: 100 μg/ml, 4 hours
Method: H929 cells were treated with either 100 µg/ml HYD1 (FIG. 24A) or HYD1S (FIG. 24B) for four hours and processed for electron microscopy as described in materials and methods.
Electron Microscopy. H929 cells were treated for four hours with either 100 μg/ml HYD1 or HYD1S. After peptide treatment, the samples were fixed overnight in 2.5% glutaraldehyde in 0.1M phosphate buffer, pH 7.2 overnight at four degrees. Following fixation, the cells were rinsed 2 times for 10 minutes each in 0.1M phosphate buffer, pH 7.2, at 4° C. The cells were loosely pelleted in microcentrifuge tubes at 500×G for 3 minutes. The buffer was removed from the cells and replaced with 1% osmium tetroxide in the above buffer at 4° C. The cells were resuspended and post-fixed for 1 hour, then loosely pelleted and rinsed in the above buffer. This step was repeated for a total of 3 rinses of 5 minutes each, with the cells being resuspended after each buffer change. Cells were dehydrated through a graded series of acetone, 30%, 50%, 70%, and 95% acetone in water, 5 minutes per change with loose pelleting at 750×G for 5 minutes, then resuspension for each step. The cells were then dehydrated through three changes of 100% acetone, 10 minutes per change, with a 5 minute pelleting step at 1000×G, followed by resuspension in each step. […]

caspase 3 = assay: Caspase 3 activity in H929 cells (fluorescent substrate); assay type: cell-based; conditions: 6 and 24 hrs, relative to treatment with melphalan
Method: Cells were treated for 6 hours (FIG. 21A) or 24 hours (FIG. 21B) and caspase 3 activity was measured using a fluorescent substrate. Shown is a representative experiment performed in triplicate. The experiment was repeated twice and similar results were obtained.
Detection of Apoptosis. A flow cytometric assay measuring Annexin V/PI staining was used to measure apoptotic cells following 24 hours of peptide exposure as previously described (Damiano J S et al. Blood, 1999; 93:1658-1667). The assay was performed in triplicate and 3 independent experiments were performed. Caspase 3 and 8 activity was measured at 6 and 24 hrs post peptide treatment per manufactures' instructions (BD Biosciences, San Jose, Calif.). The caspase assays were performed in triplicate and repeated twice.

[3] = test system: DUH-H prostate carcinoma cells; conditions: DeRoock et al. 2001; cited from earlier work
H929 cells [4] = assay: Cell adhesion to fibronectin (crystal violet staining); assay type: cell-based; conditions: varying concentrations, 30 minutes pre-incubation, 2 hours adhesion
Method: FIGS. 30A and 30B are graphs showing that HYD1 but not the scrambled derivative HYD1S inhibited cell adhesion of both 8226 and H929 cells to FN. Varying concentrations of either HYD1, HYD1S, or a 1:100 dilution of either α4β1 or α5β1 integrin functional blocking antibodies was added to either (FIG. 30A) 8226 cell or (FIG. 30B) H929 cells for 30 minutes prior to adding cells to either FN or BSA coated wells. Cells were allowed to adhere for 2 hours and adherent cells were measured by crystal violet staining at 540 nm. Shown is the mean and standard deviation of a representative experiment performed in quadruplicate. Three independent experiments were performed and similar results were obtained.
Quantification of cell adhesion to fibronectin. Briefly, 8226 or H929 myeloma cells were pre-incubated with varying concentrations of either HYD1 or the scrambled peptide (HYD1S) for 30 minutes prior to allowing cells to attach to FN for two hours. Cell adhesion was detected by crystal violet staining as previously described (Damiano J S et al. Blood, 1999; 93:1658-1667; Hazlehurst L A et al. Oncogene, 2000; 19:4319-4327).

Substance: kikmviswkg ([dK][dI][dK][dM][dV][dI][dS][dW][dK]G) [HYD1]
- protection from induced cell death by pan caspase inhibitor ZVAD-FMK (H929 cells [1]; H929 cells, 200 μM ZVAD-FMK 30 minutes prior, apoptosis at 24 hours, annexin/PI): only marginally protected
- annexin V positive cells following 6 hours of treatment (H929 cells [1]; H929 cells, 6 hours): can be detected
- induction of annexin V positive cells (H929 cells [1]; H929 cells, suspension culture, single agent, 24 hours): dose dependent induction of annexin V positive cells
- melphalan-induced apoptosis in cells cultured in suspension (H929 cells [1]; H929 cells, suspension, peptide with melphalan): increased melphalan-induced apoptosis
- sensitivity to HYD1 treatment, H929 compared to 8226 cells (H929 cells [1]; suspension culture): H929 cells are more sensitive
- time of maximal activation of ERK post-treatment (ERK): 10 min
- activation of ERK (ERK; 10 minutes post-treatment): induces activation of ERK
- formation of double membranes / vesicles (EM) (H929 cells [2]): increased formation of double membranes
- caspase 3 activity (caspase 3): minimal caspase 3 activity
- inhibition of adhesion to FN, laminin 1, laminin 5 and collagen V [3]: inhibit adhesion
- blocking of adhesion of H929 cells to the extracellular matrix FN (H929 cells [4]): blocks adhesion of 8226 and H929 cells to the extracellular matrix FN in a dose dependent manner
